# According to patent publication US5955632A, “Seco-d steroids active on the cardiovascular system, processes for their preparation and pharmaceutical compositions containing them” (Sigma-Tau Industrie Farmaceutiche Riunite S.p.A., priority 1996, dated 1999):
# Counter-ions that a name gives are not always drawn.
# Experiments:
# [1] = system: spontaneous hypertensive rats (MHS); experiment: effect of 5 week-treatment in spontaneous hypertensive rats (MHS) on the development of hypertension (tail cuff SBP and HR); format: in vivo, rat; conditions: 1 mg/Kg/os daily in Methocel 0.5% w/v, 5 weeks; for SBP (systolic blood pressure): controls (Methocel) 172 +/- 3.5; for HR (heart rate): controls (Methocel) 380 +/- 9.0
# Experimental: To test the antihypertensive activity the following test was used:
# systolic blood pressure (SBP) and heart rate (HR) were measured, by the tail cuff method, in young prehypertensive male rats (MHS or SHR) strains before the development of hypertension (4 weeks of age) for recording the basal values of SBP. Groups of 7 rats were formed and subdivided in control and treated groups. The compound, suspended in Methocel 0.5% (w/v), was orally given daily for at least 5 weeks to the treated groups. The control group received only Methocel. SBP and HR were measured weekly 6 and 24 hrs after treatment. After 5 weeks of treatment, when hypertension was fully developed in the control group (9 weeks of age), washout was started for at least one week, to verify whether the treatment mantained blood pressure low or reestablished the basal values.
# (Takeda K. et al., Japan J. Pharmacol., 1979, 29,171; Takeda K. et al. Japan J. Pharmacol., 1982, 32, 283; Richer C. et al. Eur. J. Pharmacol, 1978, 47,393).
# [2] = molecular target: T1, Na^+,K^+ -ATPase (Canis lupus familiaris, UniProt P50997); experiment: displacement of the specific ^3H-ouabain binding from the purified Na^+,K^+-ATPase receptor
# T1 construct: from tissue; the cited Jorgensen 1974 method uses outer medulla of mammalian kidney (own knowledge)
# Description: (§1) To test the affinity for the receptor site of the Na^+,K^+ -ATPase and the agonist or antagonist activity on the enzyme, the following tests were used:
# a) displacement of the specific ^3 H-ouabain binding from the Na^+,K^+ -ATPase receptor purified according to Jorghensen (Jorghensen P., BBA, 1974, 356, 36) and Erdmann (Erdmann E. et al., Arzneim. Forsh, 1984, 34, 1314);
# [3] = molecular target: T1, Na^+,K^+ -ATPase; experiment: biochemical
# Description: as §1
# b) inhibition of the activity of the purified Na^+,K^+ -ATPase measured as % of hydrolysis of ^32 P-ATP in presence and in absence of the tested compound (Doucet A. et al., Am. J. Physiol., 1986, 251, F851).
# [4] = ^3H-ouabain displacement, purified Na^+,K^+-ATPase, read-out: Binding ^3 H-Ouab. Displacement log IC50 (converted)
# [5] = purified Na^+,K^+-ATPase, ^32P-ATP hydrolysis, read-out: Inhibitory Activity log IC50 (converted)
"IC50 [2, 4]","IC50 [3, 5]",SMILES,SBP (systolic blood pressure) [1],HR (heart rate) [1],IC50 [2],IC50 [3]
–,–,"C[C@@H](C/C=N/OCCN)[C@@]1(C)CC[C@H]2[C@@H](CC[C@@H]3C[C@@H](O)CC[C@@]32C)C1=O [Comp. I-ae, E-17β-Methyl-15-[(2-aminoethoxy)imino]-5β-14,15-seco-3β-hydroxy-androstan-14-one oxalate]",149 +/- 3.7 mm Hg,370 +/- 11.2 beats/min.,–,–
–,–,"C[C@@H](C/C=N/OCCN(C)C)[C@@]1(C)CC[C@H]2[C@@H](CC[C@@H]3C[C@@H](O)CC[C@@]32C)C1=O [Comp. I-ag, E-17β-Methyl-15-[(2-dimethylaminoethoxy)imino]-5β-14,15-seco-3β-hydroxy-androstan-14-one oxalate]",154 +/- 4.8 mm Hg,390 +/- 5.9 beats/min.,–,–
3.98 µM,100 µM,"CC[C@H](/C=N/OCCN(C)C)[C@@]1(C)CC[C@H]2[C@@H](CC[C@@H]3C[C@@H](O)CC[C@@]32C)C1=O [Comp. I-ai, E-17β-2-[(2-Dimethylaminoethoxy)iminomethyl]-5β-14,15-seco-3β-hydroxy-androstan-14-one oxalate]",–,–,–,–
–,–,"CC[C@@H](C/C=N/OCCN)[C@@]1(C)CC[C@H]2[C@@H](CC[C@@H]3C[C@@H](O)CC[C@@]32C)C1=O [Comp. I-ao, E-17α-2-[(2-Aminoethoxy)iminomethyl]-5β-14,15-seco-3β-hydroxy-androstan-14-one oxalate]",–,–,0.0398 µM,0.2 µM
–,–,"CC[C@H](C/C=N/OCCN(C)C)[C@@]1(C)CC[C@H]2[C@@H](CC[C@@H]3C[C@@H](O)CC[C@@]32C)C1=O [Comp. I-aq, E-17β-2-[(2-Dimethylaminoethoxy)iminomethyl]-5β-14,15-seco-3β-hydroxy-androstan-14-one oxalate]",–,–,0.794 µM,12.6 µM
–,–,"CC[C@@H](C/C=N/OCCN(C)C)[C@@]1(C)CC[C@H]2[C@@H](CC[C@@H]3C[C@@H](O)CC[C@@]32C)C1=O [Comp. I-as, E-17α-2-[(2-Dimethylaminoethoxy)iminomethyl]-5β-14,15-seco-3β-hydroxy-androstan-14-one oxalate]",–,–,0.1 µM,1.26 µM
0.398 µM,3.16 µM,"CC[C@@H](C/C=N/NC(=N)N)[C@@]1(C)CC[C@H]2[C@@H](CC[C@@H]3C[C@@H](O)CC[C@@]32C)C1=O [Comp. I-ay, E-17α-2-(2-Guanidinoiminoethyl)-5β-14,15-seco-3β-hydroxy-androstan-14-one oxalate]",–,–,–,–
0.316 µM,6.31 µM,"CC[C@@H](C/C=C/C=N/OCCN(C)C)[C@@]1(C)CC[C@H]2[C@@H](CC[C@@H]3C[C@@H](O)CC[C@@]32C)C1=O [Comp. I-be, E,E-17α-4-[(2-Dimethylaminoethoxyimino)-2-butenyl]-5β-14,15-seco-3β-hydroxy-androstan-14-one oxalate]",150 +/- 5.1 mm Hg,384 +/- 7.9 beats/min.,–,–
–,–,"CC[C@@H](C/C=N/OCCN)[C@@]1(C)CC[C@H]2[C@@H](CC[C@H]3C[C@@H](O)CC[C@@]32C)C1=O [Comp. I-bg, E-17α-2-[(2-Aminoethoxy)iminomethyl]-14,15-seco-3β-hydroxy-androstan-14-one oxalate]",151 +/- 5.2 mm Hg,388 +/- 9.0 beats/min.,0.158 µM,1 µM
–,–,"CC[C@@H](C/C=N/OCCN(C)C)[C@@]1(C)CC[C@H]2[C@@H](CC[C@H]3C[C@@H](O)CC[C@@]32C)C1=O [Comp. I-bi, E-17α-2-[(2-Dimethylaminoethoxy)iminomethyl]-14,15-seco-3β-hydroxy-androstan-14-one oxalate]",–,–,2 µM,10 µM

SMILES,"IC50 [2, 4]","IC50 [3, 5]",SBP (systolic blood pressure) [1],HR (heart rate) [1],IC50 [2],IC50 [3]
"CC[C@@H](/C=N/OCCN(C)C)[C@@]1(C)CC[C@H]2[C@@H](CC[C@@H]3C[C@@H](O)CC[C@@]32C)C1=O [Comp. I-ak, E-17β-2-[(2-Dimethylaminoethoxy)iminomethyl]-5β-14,15-seco-3β-hydroxy-androstan-14-one oxalate]",0.501 µM,7.94 µM,153 +/- 6.3 mm Hg,380 +/- 10.0 beats/min.,–,–
